Experimental data taken from US9809598B2 (Merck Patent GmbH, priority 2014, dated 2017).

Assays:
PARP-1 = molecular target: T1, PARP-1 (Homo sapiens, UniProt P09874); assay: PARP-1 autoparsylation assay (HTRF); type: biochemical; conditions: His-tagged Parp-1, autoparsylation HTRF
T1 construct: purchased Enzo Life Sciences GmbH, Lörrach, Germany
From the text: Description of the PARP1 Assay
Biochemical Activity Testing of PARP-1: Autoparsylation Assay
The autoparsylation assay is run in two steps: the enzymatic reaction in which His-tagged Parp-1 transfers biotinylated ADP-ribose/ADP-ribose to itself from biotinylated NAD/NAD as co-substrate and the detection reaction where a time resolved FRET between cryptate labelled anti-His antibody bound to the His tag of the enzyme and Xlent® labelled-streptavidin bound the biotin-parsylation residue is analysed. The autoparsylation activity is detectable directly via the increase in HTRF signal.
The autoparsylation assay is performed as 384-well HTRF® (Cisbio, Codolet, France) assay format in Greiner low volume nb 384-well microtiter plates. […] The ratio of the emission signals is determined. The full value used is the inhibitor-free reaction. The pharmacological zero value used is Olaparib (LClabs, Woburn, US) in a final concentration of 1 μM. The inhibitory values (IC50) are determined using either the program Symyx Assay Explorer® or Condosseo® from GeneData.

TNKS1 = molecular target: T2, TNKS1 (Homo sapiens, UniProt O95271); assay: TNKS1 activity ELISA (autoparsylation assay); type: biochemical; conditions: GST-tagged Tnks-1 (1023-1327 aa)
T2 construct: GST-tagged Tnks-1 (1023-1327 aa, prepared in-house); made in house
In short: (§1)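 GST-tagged TNKS1 or TNKS2 captured on glutathione plates and allowed to auto-PARsylate with biotinylated NAD with or without compound. Biotin-ADP-ribosylated enzyme detected by streptavidin-HRP and luminescence; IC50 relative to inhibitor-free reaction.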

TNKS2 = molecular target: T3, TNKS2 (Homo sapiens, UniProt Q9H2K2); assay: TNKS2 activity ELISA (autoparsylation assay); type: biochemical; conditions: GST-tagged Tnks-2 (873-1166 aa); read-out: IC50 [M] TNKS2 ELISA
T3 construct: GST-tagged Tnks-2 (873-1166 aa, prepared in-house); made in house
In short: as §1

Tankyrases = conditions: read-out: EC50 [M] TNKS cellular assay; DLD1 cells, 24 hours, Axin2 increase
Protocol: Measurement of Cellular Inhibition of Tankyrase
Cells of the colon carcinoma cell line DLD1 are plated in 96 well plates with 1.5×10^4 cells per well. Next day, cells are treated with a serial dilution of test compound in seven steps as triplicates with a final DMSO concentration of 0.3%. […] The amount of isolated Axin2 protein is determined in a Luminex^200 machine (Luminex Corporation) according to the manufacturer's instruction by counting 100 events per well. […] As controls cells are treated with solvent alone (neutral control) and with a Tankyrase reference inhibitor IWR-2 (3E−06 M) which refers as control for maximum increase of Axin2. For analysis, the obtained data are normalized against the untreated solvent control and fitted for determination of the EC50 values using the Assay Explorer software (Accelrys).

T3 sequence (Q9H2K2 873-1166): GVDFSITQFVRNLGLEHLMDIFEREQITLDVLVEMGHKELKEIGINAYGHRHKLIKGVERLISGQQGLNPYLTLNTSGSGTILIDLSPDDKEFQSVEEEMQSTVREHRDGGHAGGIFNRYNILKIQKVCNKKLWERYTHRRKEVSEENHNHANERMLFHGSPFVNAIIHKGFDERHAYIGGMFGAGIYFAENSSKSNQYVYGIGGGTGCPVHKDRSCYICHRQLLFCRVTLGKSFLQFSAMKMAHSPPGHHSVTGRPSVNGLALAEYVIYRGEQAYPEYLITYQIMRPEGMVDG
T2 sequence (O95271 1023-1327): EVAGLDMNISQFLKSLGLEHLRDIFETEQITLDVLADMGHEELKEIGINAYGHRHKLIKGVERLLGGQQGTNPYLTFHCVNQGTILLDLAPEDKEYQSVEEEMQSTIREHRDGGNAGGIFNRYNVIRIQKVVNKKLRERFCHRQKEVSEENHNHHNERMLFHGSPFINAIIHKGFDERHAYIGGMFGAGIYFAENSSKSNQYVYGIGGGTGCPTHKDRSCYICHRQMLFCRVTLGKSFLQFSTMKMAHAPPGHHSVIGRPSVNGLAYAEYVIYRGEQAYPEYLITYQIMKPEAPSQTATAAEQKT
T1 sequence (P09874 whole entry): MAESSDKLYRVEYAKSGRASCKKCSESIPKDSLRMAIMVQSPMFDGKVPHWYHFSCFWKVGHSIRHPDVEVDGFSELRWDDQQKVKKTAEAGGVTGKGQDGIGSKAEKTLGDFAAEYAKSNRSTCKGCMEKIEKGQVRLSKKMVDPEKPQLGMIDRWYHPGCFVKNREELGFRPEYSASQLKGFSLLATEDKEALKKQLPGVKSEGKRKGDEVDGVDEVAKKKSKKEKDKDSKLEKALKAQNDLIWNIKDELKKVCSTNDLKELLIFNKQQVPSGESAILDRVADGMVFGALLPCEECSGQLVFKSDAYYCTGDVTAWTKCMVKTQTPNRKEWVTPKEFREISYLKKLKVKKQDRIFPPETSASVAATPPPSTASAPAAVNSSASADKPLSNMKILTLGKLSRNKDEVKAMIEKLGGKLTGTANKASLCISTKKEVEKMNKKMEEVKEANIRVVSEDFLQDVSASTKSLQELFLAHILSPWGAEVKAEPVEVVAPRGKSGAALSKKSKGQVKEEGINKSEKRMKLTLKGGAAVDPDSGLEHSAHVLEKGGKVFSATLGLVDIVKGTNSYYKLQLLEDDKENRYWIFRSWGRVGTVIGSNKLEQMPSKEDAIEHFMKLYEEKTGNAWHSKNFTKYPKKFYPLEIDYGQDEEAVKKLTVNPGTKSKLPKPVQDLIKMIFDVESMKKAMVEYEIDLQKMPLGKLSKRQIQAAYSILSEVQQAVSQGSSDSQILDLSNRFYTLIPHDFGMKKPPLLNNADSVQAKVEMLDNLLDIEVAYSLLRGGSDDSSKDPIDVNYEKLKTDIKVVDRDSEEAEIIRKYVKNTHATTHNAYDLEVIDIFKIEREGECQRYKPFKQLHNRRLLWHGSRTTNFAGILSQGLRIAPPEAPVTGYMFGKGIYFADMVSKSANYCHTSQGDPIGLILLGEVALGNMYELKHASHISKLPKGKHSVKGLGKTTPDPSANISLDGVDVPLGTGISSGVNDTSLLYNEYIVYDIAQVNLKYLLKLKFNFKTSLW

| Compound | IC50 (PARP-1) [nM] | IC50 (TNKS1) [nM] | IC50 (TNKS2) [M] | EC50 (Tankyrases) [M] |
| --- | --- | --- | --- | --- |
| Cc1scc2c(=O)[nH]c(CCCC(=O)N3CCC(C(=O)c4cnn(C)c4)CC3)nc12 [Compound C123, 7-Methyl-2-{4-[4-(1-methyl-1H-pyrazole-4-carbonyl)-piperidin-1-yl]-4-oxo-butyl}-3H-thieno[3,4-d]pyrimidin-4-one] | 1200 | 0.67 | 5.7e-10 | 3.4e-09 |
| COc1ccc(C(=O)C2CCN(C(=O)CCCc3nc4c(C)csc4c(=O)[nH]3)CC2)cn1 [Compound C126, 2-{4-[4-(6-Methoxypyridine-3-carbonyl)-1-piperidyl]-4-oxo-butyl}-7-methyl-3H-thieno[3,2-d]pyrimidin-4-one] | 560 | 0.23 | 1.6e-10 | 1.3e-08 |
| Cc1csc2c(=O)[nH]c(CCCC(=O)N3CCC(c4cnc(N)c(-c5ncccn5)c4)CC3)nc12 [Compound C128, 2-{4-[4-(6-Amino-5-pyrimidin-2-yl-3-pyridyl)-1-piperidyl]-4-oxo-butyl}-7-methyl-3H-thieno[3,2-d]pyrimidin-4-one] | 230 | 0.11 | 7.9e-10 | 3.3e-09 |
| Cc1csc2c(=O)[nH]c(CCCC(=O)N3CCC(Oc4ccc(C#N)cc4)CC3)nc12 [Compound C130, 4-{{1-[4-(7-Methyl-4-oxo-3H-thieno[3,2-d]pyrimidin-2-yl)butanoyl]-4-piperidyl}-oxy}benzonitrile] | 320 | 50 | 2.1e-08 | 3.3e-08 |
| Cc1csc2c(=O)[nH]c(CCCC(=O)N3CCC(C(=O)c4ccc(F)cc4)CC3)nc12 [Compound C131, 2-{4-[4-(4-Fluorobenzoyl)-1-piperidyl]-4-oxo-butyl}-7-methyl-3H-thieno[3,2-d]pyrimidin-4-one] | 270 | 0.36 | 2.1e-10 | 1.6e-08 |
| COc1ccc(C(=O)C2CCN(C(=O)CCCc3nc4c(C)csc4c(=O)[nH]3)CC2)cc1C [Compound C132, 2-{4-[4-(4-Methoxy-3-methyl-benzoyl)-1-piperidyl]-4-oxo-butyl}-7-methyl-3H-thieno[3,2-d]pyrimidin-4-one] | 440 | < 0.1 | 1.1e-10 | 7.7e-10 |
| Cc1csc2c(=O)[nH]c(CCCC(=O)N3CCC(C(=O)c4ccc(C(C)(C)O)cc4)CC3)nc12 [Compound C133, 2-{4-{4-[4-(1-Hydroxy-1-methyl-ethyl)benzoyl]-1-piperidyl}-4-oxo-butyl}-7-methyl-3H-thieno[3,2-d]pyrimidin-4-one] | 1000 | 2.1 | 7.5e-10 | 6.4e-08 |
| Cc1csc2c(=O)[nH]c(CCCC(=O)N3CCC(C(=O)c4cnn(C)c4)CC3)nc12 [Compound C135, 7-Methyl-2-{4-[4-(1-methyl-1H-pyrazole-4-carbonyl)-piperidin-1-yl]-4-oxo-butyl}-3H-thieno[3,2-d]pyrimidin-4-one] | 420 | 0.49 | 4.7e-10 | 3.9e-08 |
| COc1ccc(C(=O)C2CCN(C(=O)CCCc3nn4cccc4c(=O)[nH]3)CC2)cc1F [Compound C136, 2-{4-[4-(3-Fluoro-4-methoxy-benzoyl)-piperidin-1-yl]-4-oxo-butyl}-3H-pyrrolo[2,1-f][1,2,4]triazin-4-one] | 3100 | 0.25 | 2.1e-10 | 3.6e-09 |
| N#Cc1cc(C2CCN(C(=O)CCCc3nn4cccc4c(=O)[nH]3)CC2)cnc1N [Compound C138, 6-Amino-1′-[4-(4-oxo-3,4-dihydro-pyrrolo[2,1-f][1,2,4]triazin-2-yl)-butyryl]-1′,2′,3′,4′,5′,6′-hexahydro-[3,4′]bipyridinyl-5-carbonitrile] | 3200 | 2.2 | 2.6e-09 | 5.2e-08 |
